According to patent publication US3957812A, “Derivatives of 2-phenoxyacetamido-5-nitro-thiazole” (priority 1973, dated 1976):
In brackets after ≈: the same amount, converted by molar mass. Read-outs that look alike come from different tables or passages of the source.

What was measured:
Syphacia obvelata = assay type: in vivo; set-up: Percentage of activity: concentration or dose not given beside the values; settings: for Number of dead subjects (+): in vivo
Excerpt: (§1) Biological tests have been performed with a great number of compounds of formula (I) using the following techniques: (1) Test for amoebicidal activity described by R. CAVIER, Ann. pharm. franc., 1960, 18, pages 583-589 and by R. CAVIER, and J. CENAC, Bull. Soc. Path. exot. 1972, 65, pages 399-404. (2) Test for trichomonacidal activity described by R. CAVIER and P. BUOT, Ann. pharm. franc., 1964, 22, pages 211-216 and by R. CAVIER and J. CENAC, Semaine des Hopitaux, 1972, 48, pages 391-394). (3) Tests for anthelminthics described for nematodes (such as Syphacia obvelata) by R. CAVIER, Bull. Soc. Path. exot., 1962, 55, pages 412-417 and, for cestodes (such as Hymenolepis nana), by R. CAVIER, Ann. pharm. franc., 1956, 14, pages 545-552 and by R. CAVIER and M. J. NOTTEGHEM, Ann. pharm. franc. 1968, 28, pages 603-606.

Hymenolepis nana = assay: Test for anthelminthics, cestodes (Hymenolepis nana); assay type: in vivo; set-up: Percentage of activity: concentration or dose not given beside the values; settings: number of subjects 10
Excerpt: as §1

[1] = test system: Trichophyton mentagrophytes; assay: Determination of fungistatic doses, T.m.; assay type: cell-based; settings: liquid Sabouraud medium, 25°C, 10 days; for MIC: Trichophyton mentagrophytes, 240 h, read-out: fungistatic dose, T.m
Experimental: (§2) (4) Method for determining fungistatic doses:
(§3) A liquide Sabouraud medium having the following composition is used:
(§4) If necessary, the pH is adjusted at 6.4 and the medium is sterilized.
(§5) The compounds are dissolved in dimethylformamide to which polyethylene glycol is sometimes added. From the mother-liquor, successive diluted solutions are prepared in the liquid Sabouraud medium, so as to obtain concentrations of 1, 3, 10, 30 100 and […] per ml. For the first dilution, one should not add more than 10% of the mother-liquor to the Sabouraud medium. Subsequently 9 ml per tube of the various solutions in the liquid Sabouraud medium are distributed.
(§6) Reference tubes corresponding to the highest solvent concentrations are also prepared.
(§7) Cultures of the various dermatophyte strains on Sabouraud gelose medium are prepared. From 1 to 2 months old cultures, homogeneous suspensions of said cultures in the liquid Sabouraud medium are prepared, the obtained suspensions being stirred in the presence of glass pearls having a light transmission of about 40%.
(§8) One drop of said suspension is introduced in the tubes containing the various concentrations of the compound to be tested.
(§9) at 25°C ± 2°C in the dark
(§10) 10 days of incubation for dermatophytes.

Trichomonas vaginalis = assay: Test for trichomonacidal activity; assay type: cell-based; settings: Trichomonas vaginalis; read-out: Trichomonas vaginalis starting activity
Excerpt: as §1

Microsporum audouini = assay: Determination of fungistatic doses, M.a.; assay type: cell-based; settings: 240 h, liquid Sabouraud medium, 25°C, 10 days, read-out: fungistatic dose, M.a.
Experimental: as §2, §3, §4, §5, §6, §7, §8, §9, §10

Trichophyton rubrum = assay: Determination of fungistatic doses, T.r.; assay type: cell-based; settings: 240 h, liquid Sabouraud medium, 25°C, 10 days, read-out: fungistatic dose, T.r.
Experimental: as §2, §3, §4, §5, §6, §7, §8, §9, §10

[2] = test system: Staphylococcus aureus 209 P; assay: Determination of bacteriostatic doses, S. 209 P; assay type: cell-based; settings: gelose medium, 37°C, 24 hours; for MIC: Staphylococcus aureus, 209P, read-out: bacteriostatic dose, S. 209 P
Experimental: (§11) (5) Method for determining bacteriostatic doses
(§12) A common gelose medium of the following composition is used.
(§13) The pH is adjusted at 7.2 and the medium is sterilized during 30 minutes at 120°C.
(§14) The same method as for the determination of fungistatic doses is used, except that the various dilutions of each compound are added to the gelose medium, the solvent concentration never exceeding 3%. Tubes containing […] of the compounds per ml are prepared.
(§15) Cultures of each strain in the liquid medium are prepared and, after 24 hours of incubation at 37°C, dilutions of these cultures in ordinary broth are prepared as follows:
Staphylococcus aureus 209 P
(§16) By means of these dilutions, scratches of a length of 4 to 5 cm are made on the previously dried surface of the gelose medium to which various amounts of the compound to be tested have been added.

Enterococcus 9790 = assay: Determination of bacteriostatic doses, E. 9790; assay type: cell-based; settings: gelose medium, 37°C, 24 hours; for MIC: Enterococcus, 9790, read-out: bacteriostatic dose, E. 9790
Experimental: as §11, §12, §13, §14, §15, §16

[3] = test system: Shigella dysenteriae 3410; assay: Determination of bacteriostatic doses, S. 3410; assay type: cell-based; settings: for MIC: Shigella dysenteriae, 3410, 24 h, read-out: bacteriostatic dose, S. 3410
Experimental: as §11, §12, §13, §14, §15
Shigella dysenteriae 3410
as §16

in vivo [4] = settings: mouse, ip, intraperitoneal administration to mice, read-out: acute toxicity (LD50)
in vivo [5] = settings: mouse, po, orally administered to mice
Experimental: The LD50 of compounds PH 6099 and 5927, when orally administered to mice, is of more than 4000 mg/kg.

Microsporum felineum = assay: Determination of fungistatic doses, M.f.; assay type: cell-based; settings: liquid Sabouraud medium, 25°C, 10 days
Experimental: as §2, §3, §4, §5, §6, §7, §8, §9, §10

Epidermo flocosum = assay: Determination of fungistatic doses, E.f.; assay type: cell-based; settings: liquid Sabouraud medium, 25°C, 10 days; for MIC: 240 h, read-out: fungistatic dose, E.f.
Experimental: as §2, §3, §4, §5, §6, §7, §8, §9, §10

Entomoeba dysenteriae = assay: Test for amoebicidal activity; assay type: cell-based
Excerpt: as §1

[6] = test system: Escherichia coli OIII B 4; assay: Determination of bacteriostatic doses, O.III B 4; assay type: cell-based; settings: gelose medium, 37°C, 24 hours
Experimental: as §11, §12, §13, §14, §15
Escherichia coli OIII B 4
as §16

[7] = test system: Proteus morganii IP 53185; assay: Determination of bacteriostatic doses, P. morg.; assay type: cell-based; settings: gelose medium, 37°C, 24 hours
Experimental: as §11, §12, §13, §14, §15
Proteus morganii IP 53185
as §16

[8] = test system: Pseudomonas aeruginosa 8194; assay: Determination of bacteriostatic doses, Pseudo 8194; assay type: cell-based; settings: gelose medium, 37°C, 24 hours
Experimental: as §11, §12, §13, §14, §15
Pseudomonas aeruginosa 8194
as §16

Proteus vulgaris 8181 = assay: Determination of bacteriostatic doses, 8181; assay type: cell-based; settings: gelose medium, 37°C, 24 hours, strain 8181, read-out: bacteriostatic dose, (8181) printed in column P. morg.
Experimental: as §11, §12, §13, §14, §15, §16

[9] = Syphacia obvelata, number of subjects 10

| Compound | Percentage of activity (Syphacia obvelata; [9]) [%] | Number of dead subjects (+) (Syphacia obvelata) | Number of dead subjects (+) (Hymenolepis nana) | Number of subjects from which the parasite has been eradicated (D) (Hymenolepis nana) | Percentage of activity (Hymenolepis nana) [%] | MIC [1] [µg/mL] | MIC (Microsporum audouini) [µg/mL] | MIC [2] [µg/mL] | MIC (Enterococcus 9790) [µg/mL] | MIC [3] [µg/mL] | LD50 (in vivo [4]) [mg/kg] | LD50 (in vivo [5]) [mg/kg] | MIC (Epidermo flocosum) [µg/mL] | also measured |
| --- | --- | --- | --- | --- | --- | --- | --- | --- | --- | --- | --- | --- | --- | --- |
| O=C(COc1cc(Cl)ccc1Cl)Nc1ncc([N+](=O)[O-])s1 [PH 6159] | 0 | 0 | 0 | 2 | 20 | 30 (≈ 86.2 µM) |  |  |  |  |  |  |  |  |
| Cc1cc(OCC(=O)Nc2ncc([N+](=O)[O-])s2)c(C(C)C)cc1Cl [PH 6099] | 20 | 0 | 0 | 4 | 40 |  | 0.1 (≈ 0.27 µM) | 3 (≈ 8.11 µM) | 300 (≈ 811 µM) | 300 (≈ 811 µM) | ~200 | > 4000 |  | minimal effective concentration (Trichomonas vaginalis): 100 µg/mL; MIC (Trichophyton rubrum): 2 µg/mL (≈ 5.41 µM) |
| O=C(COc1ccc(Cl)cc1Cl)Nc1ncc([N+](=O)[O-])s1 [PH 6091] | 20 | 0 | 0 | 3 | 30 | 3 (≈ 8.62 µM) |  | 3 (≈ 8.62 µM) |  |  |  |  | 1 (≈ 2.87 µM) | MIC (Microsporum felineum; Microsporum, 240 h, read-out: fungistatic dose, M.f.): 30 µg/mL (≈ 86.2 µM) |
| 2-(2'-trifluoromethyl-3'-methylphenoxyacetamido)-5-nitrothiazole [PH 6306] | 0 | 0 | 0 | 0 | 0 |  |  |  |  |  |  |  |  | Entomoeba dysenteriae starting activity (Entomoeba dysenteriae): 5 mμ/ml; Number of subjects from which the parasite has been eradicated (D) (Syphacia obvelata; [9]): 0; fungistatic dose, T.m [1]: 1 µg/mL; fungistatic dose, M.f. (Microsporum felineum): 10 µg/mL; fungistatic dose, E.f. (Epidermo flocosum): 30 µg/mL; bacteriostatic dose, S. 209 P [2]: 10 µg/mL; bacteriostatic dose, E. 9790 (Enterococcus 9790): 100 µg/mL; bacteriostatic dose, O.III B 4 [6]: 0 µg/mL; bacteriostatic dose, S. 3410 ([3]; gelose medium, 37°C, 24 hours): 0 µg/mL; bacteriostatic dose, P. morg. [7]: 0 µg/mL; bacteriostatic dose, Pseudo 8194 [8]: 0 µg/mL |
| O=C(COc1ccc(Cl)cc1)Nc1ncc([N+](=O)[O-])s1 [PH 5927] | 30 | 0 | 0 | 0 | 0 | 30 (≈ 95.6 µM) |  | 100 (≈ 319 µM) |  |  | > 4500 | > 4000 | 10 (≈ 31.9 µM) |  |
| O=C(COc1c(F)c(F)c(F)c(F)c1F)Nc1ncc([N+](=O)[O-])s1 [PH 6168] | 0 | 0 | 0 | 2 | 20 | 1 (≈ 2.71 µM) | 3 (≈ 8.13 µM) | 10 (≈ 27.1 µM) | 10 (≈ 27.1 µM) | 300 (≈ 813 µM) |  |  | 1 (≈ 2.71 µM) | MIC ([6]; Escherichia coli, OIIIB4, read-out: bacteriostatic dose, O.III B 4): 300 µg/mL (≈ 813 µM); MIC (Proteus vulgaris 8181): 300 µg/mL (≈ 813 µM) |
